The record followed here is ChEMBL document CHEMBL5678803, “Selective blockade of TRPA1 channel attenuates pathological pain without altering noxious cold sensation or body temperature regulation” (Pain, 2011).

The target in series [1] is T1, Transient receptor potential cation channel subfamily V member 3 (Homo sapiens) (UniProt Q8NET8).
T1 sequence (whole entry): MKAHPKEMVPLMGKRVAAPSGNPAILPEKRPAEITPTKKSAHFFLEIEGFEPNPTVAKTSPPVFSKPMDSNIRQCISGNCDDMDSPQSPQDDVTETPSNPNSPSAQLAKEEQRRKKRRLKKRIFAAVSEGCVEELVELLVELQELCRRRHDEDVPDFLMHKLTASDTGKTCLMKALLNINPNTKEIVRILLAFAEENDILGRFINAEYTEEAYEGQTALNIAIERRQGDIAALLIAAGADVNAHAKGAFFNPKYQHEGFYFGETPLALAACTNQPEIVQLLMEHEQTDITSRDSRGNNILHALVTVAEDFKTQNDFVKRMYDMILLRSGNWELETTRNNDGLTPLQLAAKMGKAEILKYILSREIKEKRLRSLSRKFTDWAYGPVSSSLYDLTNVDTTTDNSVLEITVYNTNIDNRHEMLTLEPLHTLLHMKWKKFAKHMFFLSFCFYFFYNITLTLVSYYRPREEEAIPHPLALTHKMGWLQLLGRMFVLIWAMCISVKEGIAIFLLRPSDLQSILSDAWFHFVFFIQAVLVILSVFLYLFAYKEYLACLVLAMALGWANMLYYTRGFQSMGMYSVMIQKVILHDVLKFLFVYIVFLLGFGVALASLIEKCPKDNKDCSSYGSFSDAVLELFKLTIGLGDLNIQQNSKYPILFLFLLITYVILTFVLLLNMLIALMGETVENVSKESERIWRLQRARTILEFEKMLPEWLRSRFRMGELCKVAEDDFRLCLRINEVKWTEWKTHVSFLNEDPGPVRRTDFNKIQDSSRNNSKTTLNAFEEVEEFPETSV
The series is described as follows: Activation of endogenous TRPV3 in human epithelial cells upto 100 micromol/L. It counts as cell-based. The conditions noted are these: Epithelial cell, dose <= 100.0 µmol/L.

Series [2] addresses Sodium-dependent noradrenaline transporter (Homo sapiens) (UniProt P23975). The series is described as follows: Inhibition of norepinephrine transporter (unknown origin) at 10 micromol/L by radioligand binding assay. The conditions noted are these: dose 10.0 µmol/L.
The nature of series [3]: Tmax in rat at 2 mg/kg, po. It counts as ADME, organism-based. Conditions: in vivo.
Series [4] is described as follows: Unbound drug concentration in rat at 62.1 mg/kg, po measured after 60 mins. Conditions: in vivo, 1 h. It counts as ADME, organism-based.
Series [5] has as its target Transient receptor potential cation channel subfamily A member 1 (Homo sapiens, UniProt O75762). The series is described as follows: Antagonist activity at recombinant human TRPA1 expressed in HEK293F cells assessed as reduction in AITC-induced increase in intracellular Ca2+ level by FLIPR-based Ca2+ assay. The class given is cell-based. Conditions: filed as antagonist.

In series [6] the test system is Rattus norvegicus. The series is described as follows: Antiallodynic activity in acetone-induced CCI Sprague-Dawley rat model assessed as attenuation of acetone induced cold allodynia at 62.1 mg/kg, po measured after 1 hrs relative to control. It counts as functional.
Series [7] is described as follows: Chemical reactivity of compound to 13C-labelled La antigen by ALARM NMR spectroscopic analysis. It counts as physicochemical.
Series [8] is described as follows: Toxicity in Sprague-Dawley rat assessed as effect on body temperature at 20.7 to 62.1 mg/kg, po measured after 480 mins by radiotelemetric analysis. The conditions noted are these: in vivo, 8 h, dose 20.7-62.1 mg/kg. The class given is organism-based.
The nature of series [9]: Oral bioavailability in rat at 2 mg/kg. It counts as ADME, organism-based. Conditions: in vivo.
Series [10] is described as follows: Half-life in rat at 2 mg/kg, po. The class given is ADME, organism-based. The conditions noted are these: in vivo.
Series [11] has as its target T2, Transient receptor potential cation channel subfamily V member 2 (Rattus norvegicus) (UniProt Q9WUD2).
T2 sequence (whole entry): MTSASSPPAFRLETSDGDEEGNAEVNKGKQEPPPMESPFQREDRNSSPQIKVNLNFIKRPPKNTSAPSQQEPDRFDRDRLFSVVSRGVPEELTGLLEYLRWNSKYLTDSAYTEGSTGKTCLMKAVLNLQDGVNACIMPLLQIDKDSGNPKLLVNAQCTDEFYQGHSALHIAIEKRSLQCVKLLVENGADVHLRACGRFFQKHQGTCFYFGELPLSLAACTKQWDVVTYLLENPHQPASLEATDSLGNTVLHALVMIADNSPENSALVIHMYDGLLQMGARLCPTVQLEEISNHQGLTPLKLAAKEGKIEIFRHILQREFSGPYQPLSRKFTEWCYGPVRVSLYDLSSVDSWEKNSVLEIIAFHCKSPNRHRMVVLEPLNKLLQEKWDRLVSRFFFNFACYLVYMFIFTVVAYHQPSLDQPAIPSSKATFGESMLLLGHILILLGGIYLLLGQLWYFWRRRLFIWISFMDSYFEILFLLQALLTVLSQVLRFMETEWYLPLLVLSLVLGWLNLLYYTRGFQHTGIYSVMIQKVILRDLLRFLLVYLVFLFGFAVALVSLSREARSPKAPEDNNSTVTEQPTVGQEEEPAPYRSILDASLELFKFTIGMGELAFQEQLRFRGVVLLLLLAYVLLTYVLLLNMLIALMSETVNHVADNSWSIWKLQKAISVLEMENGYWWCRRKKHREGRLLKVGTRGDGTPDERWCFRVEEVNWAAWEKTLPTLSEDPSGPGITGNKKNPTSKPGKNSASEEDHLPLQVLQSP
Kind of series: Antagonist activity at rat TRPV2 expressed in HEK293F cells assessed as inhibition of 2APB-induced TRPV2 channel activation by FLIPR-based Ca2+ assay relative to control. It counts as cell-based. The conditions noted are these: concentration not given here.

The target of series [12] is Transient receptor potential cation channel subfamily V member 4 (Homo sapiens, UniProt Q9HBA0). The series is described as follows: Antagonist activity at human TRPV4 expressed in HEK293F cells assessed as inhibition of mOsmo-induced increase in intracellular Ca2+ level by FLIPR-based Ca2+ assay. It counts as cell-based.
Series [13] deals with Rattus norvegicus. Kind of series: Antiallodynic activity in spinal nerve ligation-induced neuropathic pain Sprague-Dawley rat model assessed as attenuation of mechanical allodynia at 6.2 to 62.1 mg/kg, po administered with compound for 1 hrs and measured 10 to 14 days after surgery. The conditions noted are these: dose 6.2-62.1 mg/kg, time 241-337 hrs. The class given is functional, organism-based.

Series [14] can be described thus: Toxicity in Sprague-Dawley rat assessed as effect on heart rate. Conditions: in vivo.
Series [15] deals with Transient receptor potential cation channel subfamily M member 8 (Homo sapiens, UniProt Q7Z2W7). Kind of series: Antagonist activity at human TRPM8 expressed in HEK293F cells assessed as inhibition of menthol-induced increase in intracellular Ca2+ level by FLIPR-based Ca2+ assay. It counts as cell-based.
Series [16] has as its target Transient receptor potential cation channel subfamily A member 1 (Rattus norvegicus) (UniProt Q6RI86). The series is described as follows: Antagonist activity at endogenous TRPA1 in rat DRG neurons assessed as blockade of capsaicin-induced CGRP release at 50 micromol/L. It counts as cell-based. Conditions: DRG neuron, dose 50.0 µmol/L.
For series [17] the target is unchanged. Kind of series: Antagonist activity at endogenous TRPA1 in rat DRG neurons assessed as blockade of AITC-induced Ca2+ signals at 1 micromol/L by […] Ca2+ imaging analysis. It counts as cell-based. The conditions noted are these: DRG neuron, filed as antagonist, dose 1.0 µmol/L.
Series [18] has as its system Rattus norvegicus. Kind of series: Analgesic activity in MIA-induced osteoarthritic pain Sprague-Dawley rat model assessed as reversal of MIA-induced hind limb grip force deficit preadministered with MIA for 3 weeks followed by oral administration of compound for 1 hrs. It counts as functional. Conditions: dose 6.2-62.1 mg/kg.

The source made the active and inactive calls.

Transient receptor potential cation channel subfamily A member 1 (Rattus norvegicus), sequence (Q6RI86 whole entry): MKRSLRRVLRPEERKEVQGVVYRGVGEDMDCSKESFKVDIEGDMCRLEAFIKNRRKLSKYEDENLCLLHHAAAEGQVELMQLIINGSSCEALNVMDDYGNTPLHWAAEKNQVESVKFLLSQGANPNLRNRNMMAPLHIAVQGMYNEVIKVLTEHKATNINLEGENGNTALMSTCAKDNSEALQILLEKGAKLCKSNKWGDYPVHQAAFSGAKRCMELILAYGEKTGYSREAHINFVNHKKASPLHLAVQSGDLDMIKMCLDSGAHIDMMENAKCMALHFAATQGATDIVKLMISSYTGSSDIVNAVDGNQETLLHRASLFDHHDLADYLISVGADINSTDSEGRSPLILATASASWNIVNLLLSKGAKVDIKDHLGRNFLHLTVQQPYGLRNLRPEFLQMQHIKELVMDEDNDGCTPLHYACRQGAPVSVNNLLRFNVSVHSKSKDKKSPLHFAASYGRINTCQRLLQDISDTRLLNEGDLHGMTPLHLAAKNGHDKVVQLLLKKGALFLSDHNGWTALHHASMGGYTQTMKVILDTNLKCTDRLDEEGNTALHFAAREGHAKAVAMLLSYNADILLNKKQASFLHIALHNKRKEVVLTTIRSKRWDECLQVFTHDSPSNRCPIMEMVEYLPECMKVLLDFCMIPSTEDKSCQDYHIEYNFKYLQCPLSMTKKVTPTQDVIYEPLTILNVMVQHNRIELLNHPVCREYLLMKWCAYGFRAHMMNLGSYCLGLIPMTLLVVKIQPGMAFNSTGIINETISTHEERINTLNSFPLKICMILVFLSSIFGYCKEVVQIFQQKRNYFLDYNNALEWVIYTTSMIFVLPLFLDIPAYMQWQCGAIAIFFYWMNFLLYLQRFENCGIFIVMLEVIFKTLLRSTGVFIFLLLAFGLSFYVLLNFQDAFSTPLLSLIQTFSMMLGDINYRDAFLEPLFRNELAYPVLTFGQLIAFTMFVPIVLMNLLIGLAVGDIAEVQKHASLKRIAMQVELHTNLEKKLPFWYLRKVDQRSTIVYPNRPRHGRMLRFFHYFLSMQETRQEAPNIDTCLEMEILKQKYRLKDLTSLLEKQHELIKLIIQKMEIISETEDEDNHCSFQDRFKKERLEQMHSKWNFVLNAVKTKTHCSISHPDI
Transient receptor potential cation channel subfamily V member 4, sequence (Q9HBA0 whole entry): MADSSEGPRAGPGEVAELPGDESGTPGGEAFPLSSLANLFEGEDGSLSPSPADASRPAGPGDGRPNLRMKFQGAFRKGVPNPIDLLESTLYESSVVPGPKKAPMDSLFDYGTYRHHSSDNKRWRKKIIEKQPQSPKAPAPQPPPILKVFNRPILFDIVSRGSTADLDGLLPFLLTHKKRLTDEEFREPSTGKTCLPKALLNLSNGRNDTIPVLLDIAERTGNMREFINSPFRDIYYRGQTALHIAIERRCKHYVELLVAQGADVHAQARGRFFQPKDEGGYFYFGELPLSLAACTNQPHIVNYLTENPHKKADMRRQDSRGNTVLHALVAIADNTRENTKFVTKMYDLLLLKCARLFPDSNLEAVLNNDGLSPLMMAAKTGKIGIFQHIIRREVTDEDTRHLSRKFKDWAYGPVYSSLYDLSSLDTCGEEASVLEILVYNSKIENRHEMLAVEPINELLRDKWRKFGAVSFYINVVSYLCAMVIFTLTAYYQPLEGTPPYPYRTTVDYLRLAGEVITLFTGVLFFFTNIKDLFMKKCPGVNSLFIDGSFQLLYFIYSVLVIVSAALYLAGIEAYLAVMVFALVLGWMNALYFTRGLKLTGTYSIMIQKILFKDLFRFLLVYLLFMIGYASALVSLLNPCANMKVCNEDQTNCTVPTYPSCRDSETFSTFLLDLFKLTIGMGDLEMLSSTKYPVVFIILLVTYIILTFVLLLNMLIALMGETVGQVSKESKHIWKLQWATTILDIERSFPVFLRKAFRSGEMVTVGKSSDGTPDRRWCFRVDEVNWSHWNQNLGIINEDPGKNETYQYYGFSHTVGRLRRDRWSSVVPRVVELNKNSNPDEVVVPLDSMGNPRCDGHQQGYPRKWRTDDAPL
Sodium-dependent noradrenaline transporter (Homo sapiens), sequence (P23975 whole entry): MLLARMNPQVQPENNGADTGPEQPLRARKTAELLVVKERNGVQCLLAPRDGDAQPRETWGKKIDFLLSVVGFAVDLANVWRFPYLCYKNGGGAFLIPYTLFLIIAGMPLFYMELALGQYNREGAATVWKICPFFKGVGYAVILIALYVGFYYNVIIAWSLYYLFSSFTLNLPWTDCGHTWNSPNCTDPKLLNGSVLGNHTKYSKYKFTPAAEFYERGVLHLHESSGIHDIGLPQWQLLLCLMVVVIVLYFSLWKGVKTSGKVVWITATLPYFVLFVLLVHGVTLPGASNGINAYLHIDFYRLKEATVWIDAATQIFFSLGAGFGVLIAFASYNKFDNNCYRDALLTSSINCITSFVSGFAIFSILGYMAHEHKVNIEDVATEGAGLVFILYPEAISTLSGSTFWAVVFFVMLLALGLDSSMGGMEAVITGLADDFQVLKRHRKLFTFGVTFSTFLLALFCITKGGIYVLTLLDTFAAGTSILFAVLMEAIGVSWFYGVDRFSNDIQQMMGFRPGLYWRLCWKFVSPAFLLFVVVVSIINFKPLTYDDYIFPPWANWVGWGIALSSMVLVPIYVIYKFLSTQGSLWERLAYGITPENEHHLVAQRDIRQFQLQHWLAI
Transient receptor potential cation channel subfamily M member 8, sequence (Q7Z2W7 whole entry): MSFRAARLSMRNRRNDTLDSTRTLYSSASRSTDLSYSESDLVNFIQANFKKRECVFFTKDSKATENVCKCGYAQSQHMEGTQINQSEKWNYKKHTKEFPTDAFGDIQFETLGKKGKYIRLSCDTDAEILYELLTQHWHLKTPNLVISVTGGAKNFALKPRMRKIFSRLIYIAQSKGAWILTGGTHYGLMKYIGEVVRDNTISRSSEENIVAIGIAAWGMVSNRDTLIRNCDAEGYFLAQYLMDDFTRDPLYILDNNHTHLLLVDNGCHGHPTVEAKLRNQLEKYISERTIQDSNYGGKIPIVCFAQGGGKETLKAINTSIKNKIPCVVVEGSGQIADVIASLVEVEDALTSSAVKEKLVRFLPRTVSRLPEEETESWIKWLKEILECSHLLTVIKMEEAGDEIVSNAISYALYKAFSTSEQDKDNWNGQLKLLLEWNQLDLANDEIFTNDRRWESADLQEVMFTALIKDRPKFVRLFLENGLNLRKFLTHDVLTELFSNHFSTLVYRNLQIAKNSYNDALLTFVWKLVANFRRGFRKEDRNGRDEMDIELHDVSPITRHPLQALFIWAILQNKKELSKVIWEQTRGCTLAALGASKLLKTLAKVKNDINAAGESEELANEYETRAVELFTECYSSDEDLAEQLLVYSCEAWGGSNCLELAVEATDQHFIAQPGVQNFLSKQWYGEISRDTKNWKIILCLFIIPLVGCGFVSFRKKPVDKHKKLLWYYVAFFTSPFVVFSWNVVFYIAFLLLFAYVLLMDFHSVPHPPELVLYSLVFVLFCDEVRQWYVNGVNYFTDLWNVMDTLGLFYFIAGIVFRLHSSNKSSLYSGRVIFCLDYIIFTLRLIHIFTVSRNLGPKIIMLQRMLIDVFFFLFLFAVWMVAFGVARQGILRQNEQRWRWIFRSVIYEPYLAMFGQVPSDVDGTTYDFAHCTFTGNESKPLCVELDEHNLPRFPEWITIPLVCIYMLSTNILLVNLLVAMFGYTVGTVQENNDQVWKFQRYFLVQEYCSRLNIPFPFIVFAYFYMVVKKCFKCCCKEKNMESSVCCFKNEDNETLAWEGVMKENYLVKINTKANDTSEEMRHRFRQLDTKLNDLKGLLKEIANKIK
Transient receptor potential cation channel subfamily A member 1, sequence (O75762 whole entry): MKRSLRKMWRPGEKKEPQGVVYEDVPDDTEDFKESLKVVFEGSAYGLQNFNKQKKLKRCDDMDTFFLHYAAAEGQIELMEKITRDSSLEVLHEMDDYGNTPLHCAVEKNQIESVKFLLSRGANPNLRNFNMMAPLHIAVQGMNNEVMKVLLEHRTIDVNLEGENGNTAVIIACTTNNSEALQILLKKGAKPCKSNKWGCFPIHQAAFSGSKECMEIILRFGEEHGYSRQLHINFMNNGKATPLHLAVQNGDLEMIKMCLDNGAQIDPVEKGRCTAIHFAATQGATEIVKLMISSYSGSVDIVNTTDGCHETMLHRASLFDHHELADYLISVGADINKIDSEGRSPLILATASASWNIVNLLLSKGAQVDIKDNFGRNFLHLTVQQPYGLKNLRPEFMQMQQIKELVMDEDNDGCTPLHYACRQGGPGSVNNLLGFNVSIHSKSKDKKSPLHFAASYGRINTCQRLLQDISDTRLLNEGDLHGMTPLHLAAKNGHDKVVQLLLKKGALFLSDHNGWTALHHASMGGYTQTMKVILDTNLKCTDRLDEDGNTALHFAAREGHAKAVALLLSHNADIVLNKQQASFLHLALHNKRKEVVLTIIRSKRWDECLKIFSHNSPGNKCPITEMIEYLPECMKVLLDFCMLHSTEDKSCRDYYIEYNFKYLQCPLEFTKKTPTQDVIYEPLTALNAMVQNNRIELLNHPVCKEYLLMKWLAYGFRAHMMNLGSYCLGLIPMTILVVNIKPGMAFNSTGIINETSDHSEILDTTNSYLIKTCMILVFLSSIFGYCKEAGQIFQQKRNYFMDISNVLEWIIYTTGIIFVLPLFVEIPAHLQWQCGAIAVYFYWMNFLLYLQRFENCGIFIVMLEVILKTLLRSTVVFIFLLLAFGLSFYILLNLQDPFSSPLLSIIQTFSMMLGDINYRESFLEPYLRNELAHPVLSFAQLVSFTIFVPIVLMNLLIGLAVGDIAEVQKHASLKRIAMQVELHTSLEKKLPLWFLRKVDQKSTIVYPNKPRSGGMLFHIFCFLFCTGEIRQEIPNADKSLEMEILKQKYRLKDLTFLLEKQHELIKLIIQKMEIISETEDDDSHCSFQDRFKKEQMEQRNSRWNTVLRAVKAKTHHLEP

As usually defined, the inhibition is the percentage by which the read-out fell short of the control. As usually defined, the Tmax is the time from dosing to the highest level. Usually bioavailability stands for the share of a dose that reaches the circulation, judged against a reference dose that is usually intravenous. Higher therefore signals much systemic uptake. A word on the half-life: it is the time needed for the level to fall by half in the phase considered. By IC50 is commonly meant the concentration that inhibits the measured activity by half. Usually ED50 stands for the dose that gives a 50% effect, or the effect in half of the subjects. For `CCC(=N\O)/C(C)=C/c1ccc(F)cc1` [A-079], the outcome (in series [1]; in the series on Rattus norvegicus [13]; in series [16]) was inactive. In addition, the inhibition in series [2] was 32%; in series [11] it was less than 20%. In addition, in [3], the time to peak (Tmax) came out at 30 min. Besides, in series [4], the “Drug uptake(free)” value amounted to 0.47 µmol/L. Also, the Activity entry in series [5] is “Dose-Dependent Effect”; with Rattus norvegicus [6], 46.4%; in series [8] it was “Non-Toxic”; in series [14], “Non-Toxic”; in the series on Rattus norvegicus [18], “Dose-Dependent Effect”. Besides, in [7], the Stability entry is “Stable”. For the same compound, the bioavailability in series [9] came to 37%. The same compound had a half-life in series [10] of 48.6 min. In addition, the IC50 in [12] and in [15] was greater than 100 µM each time. Moreover, in [17], the outcome was Active. Moreover, the ED50 in the series with Rattus norvegicus [18] was 23.2 mg/kg.
